Columns and labels:
Assay type in all cases: in vivo, rat
male rats = assay: Penile erection study in male rats after oral administration (responding rats, ED50, erection episodes, penile erection index); settings: for responding rats, # / responding rats, %: 10 rats tested, 2 h observation; for copulation mounting behaviour: 0.0781-0.625 mg/kg
Experimental: The purpose of this study was to compare the biological activity of compound 7a with that of sildenafil. In particular, the respective ED50 -value (ED=effective dose), erection episodes and penile erection indices of said compounds in the treatment of male rats were determined. The penile erection index is an established means of determining the erection promoting properties of a substance (see e.g. Ang, H. H., Sim, M. K., Pharm. Sci., 3, 117-119 (1997) and references cited therein).
In these experiments, the compounds 7a and sildenafil were administered to male rats orally. The doses used for both drugs were 0.0781, 0.1562, 0.3125 and 0.625 mg/kg body weight. Sildenafil was dissolved in distilled water, whereas 7a was dissolved in 1% HCl solution (aq). Control animals were administered with the vehicles only, i.e. distilled water or the 1% HCl solution. During the experiments, the rats were placed in glass cages for observation and had access to food and water. During 2 h after administration of the investigated compounds, the penile erection of the rats was monitored.

rats = assay: Preliminary toxicity studies in rats
Experimental: (§1) Moreover, according to preliminary toxicity studies in rats, the compound 7a is tolerated up to a dose of about […] body weight without any detrimental effects. […] Thus, high doses of 7a provide a particularly efficient means for treatment of erectile dysfunction.

[1] = Preliminary toxicity studies in rats; settings: rat, in vivo, read-out: tolerated dose without any detrimental effects
Experimental: as §1

SMILES | responding rats, # (male rats; dose 0.0781 mg/kg oral) | responding rats, % (male rats; dose 0.0781 mg/kg oral) | responding rats, # (male rats; dose 0.1562 mg/kg oral) | responding rats, % (male rats; dose 0.1562 mg/kg oral) | responding rats, # (male rats; dose 0.3125 mg/kg oral) | responding rats, % (male rats; dose 0.3125 mg/kg oral) | responding rats, # (male rats; dose 0.6250 mg/kg oral) | responding rats, % (male rats; dose 0.6250 mg/kg oral) | copulation mounting behaviour (male rats; male rats, oral) | number of erection episodes and penile erection indices (in words) (male rats; male rats, oral, 7a vs sildenafil, FIGS. 1 and 2) | ED50 of 7a compared with sildenafil (in words) (male rats; male rats, oral, 7a vs sildenafil, 95% confidence interval) | toxicity and side-effects (in words) (rats) | NOAEL [1]
CCCc1nn(C)c2c(=O)[nH]c(-c3cc(S(=O)(=O)N4CCN(C)CC4)cc4c3OCC4)nc12 [Compound 7a, 5-[2,3-dihydro-5-(4-methylpiperazin-1-ylsulfonyl)-7-benzofuryl]-1-methyl-3-propyl-6,7-dihydro-1H-pyrazolo[4,3-d]pyrimidin-7-one] | 3 # | 30% | 4 # | 40% | 4 # | 40% | 8 # | 80% | no copulation mounting behaviour was observed | superior to sildenafil, especially at higher doses | lower than that of sildenafil | completely non-toxic and free from undesirable side-effects | ~0.35 mg/kg
CCCc1nn(C)c2c(=O)[nH]c(-c3cc(S(=O)(=O)N4CCN(C)CC4)ccc3OCC)nc12 [Sildenafil, reference compound] | 3 # | 30% | 3 # | 30% | 5 # | 50% | 7 # | 70% | no copulation mounting behaviour was observed |  |  |  | 
